Experimental data published in the supplement of paper PMC11208160.

assay: recombinant UMI read abundance after kanamycin selection (control-corrected) (log10(CPM+1)); higher = more efficient recombination; extreme values may be limits of the assay; sequences stand for … in AGTGCAGAGAAAATCGGCCAGTTTTCTCTGCCTGCAGTCCGCATGCCGTGGGACCCCTTGGGTTCTAACCTGTTGCCTAGATTTATGCAGCGGACTGCCTTTCTCCCAAAGTGATAAACCGG…AGGTTGGTTTCACT; site = the 11-nt donor
Procedure, shortened: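 Pooled Escherichia coli screen of donor and donor-binding-loop pairs for the IS621 bridge recombinase. Each pair sits with a 12-nt UMI on a plasmid carrying a promoterless kanamycin gene. The library was co-electroporated with a target plasmid encoding a fixed target and T7-inducible recombinase, then plated with IPTG (0.07 mM) plus kanamycin, or unselected, each in two replicates. Recombinant UMIs were PCR-amplified across the donor–target junction and sequenced. Counts became CPM, averaged over replicates, scaled by control-derived factors and reported as log10(CPM+1).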
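Also: IS621 bridge recombinase in Escherichia coli cells against a fixed T5 target plasmid.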

Sequence	recombinant UMI read abundance (log10)
CTCCCTACATGGACCGGTTTTCCCGGTAATCCGTATTTGAT (site CTCCCTACTAT)	1.01
CTCCCTACATGGACCGGTTTTCCCGGTAATCCGTATTTGAT (site CTCCCTACTCT)	0.00726
CTCCCTACATGGACCGGTTTTCCCGGTAATCCGTATTTGAT (site CTCCCTACTGT)	0.137
CTCCCTACATGGACCGGTTTTCCCGGTAATCCGTATTTGAT (site CTCCCTACTTT)	0.0164
CTCCCTACATGGACCGGTTTTCCCGGTAATCCGTATTTGGG (site CTCCCTACTCA)	0.037
CTCCCTACATGGACCGGTTTTCCCGGTAATCCGTATTTGGG (site CTCCCTACTCC)	0.0177
CTCCCTACATGGACCGGTTTTCCCGGTAATCCGTATTTGGG (site CTCCCTACTCG)	0.00544
CTCCCTACATGGACCGGTTTTCCCGGTAATCCGTATTTGGG (site CTCCCTACTCT)	0.0127
CTCCCTGCATGGACCGGTTTTCCCGGTAATCCGTATTTGGC (site CTCCCTGCTGC)	0
CTCCGACCATGGACCGGTTTTCCCGGTAATCCGTATTTGAC (site CTCCGACCTGT)	0
CTCCTACCATGGACCGGTTTTCCCGGTAATCCGTATTTGCT (site CTACTACCTAG)	0
CTCCTACCATGGACCGGTTTTCCCGGTAATCCGTATTTGCT (site CTCCTACCTAG)	0
CTCCTACCATGGACCGGTTTTCCCGGTAATCCGTATTTGCT (site CTGCTACCTAG)	0.00362
CTCCTACCATGGACCGGTTTTCCCGGTAATCCGTATTTGCT (site CTTCTACCTAG)	0
CTCGAAACATGGACCGGTTTTCCCGGTAATCCGTATTTGTG (site CTCGAAACTCA)	1.06
CTCGAATCATGGACCGGTTTTCCCGGTAATCCGTATTTGCA (site CTCGAATCTTG)	2.42
CTCGACACATGGACCGGTTTTCCCGGTAATCCGTATTTGGC (site CTCGACACTGC)	1.04
CTCGCAACATGGACCGGTTTTCCCGGTAATCCGTATTTGTT (site CTCGCAACTAA)	1.96
CTCGGAGCATGGACCGGTTTTCCCGGTAATCCGTATTTGAC (site CTCGGAGCTGT)	2.63
CTCGTAACATGGACCGGTTTTCCCGGTAATCCGTATTTGAT (site CTCGTAACTAT)	2.31
CTCGTATCATGGACCGGTTTTCCCGGTAATCCGTATTTGAG (site CTAGTATCTGT)	0
CTCGTATCATGGACCGGTTTTCCCGGTAATCCGTATTTGAG (site CTCGTATCTCT)	1.9
CTCTAAGCATGGACCGGTTTTCCCGGTAATCCGTATTTGTC (site CTCTAAGCTGA)	1.81

Sequence	recombinant UMI read abundance (log10)
CTCTACACATGGACCGGTTTTCCCGGTAATCCGTATTTGAT (site CTCTACACTAA)	0.0183
CTCTACACATGGACCGGTTTTCCCGGTAATCCGTATTTGAT (site CTCTACACTAC)	0.0649
CTCTACACATGGACCGGTTTTCCCGGTAATCCGTATTTGAT (site CTCTACACTAG)	0.00358
CTCTACACATGGACCGGTTTTCCCGGTAATCCGTATTTGAT (site CTCTACACTAT)	2.19
CTCTACACATGGACCGGTTTTCCCGGTAATCCGTATTTGCC (site CTCTACACTAG)	0.72
CTCTACACATGGACCGGTTTTCCCGGTAATCCGTATTTGCC (site CTCTACACTCG)	0.0134
CTCTACACATGGACCGGTTTTCCCGGTAATCCGTATTTGCC (site CTCTACACTGG)	2.37
CTCTACACATGGACCGGTTTTCCCGGTAATCCGTATTTGCC (site CTCTACACTTG)	2.13
CTCTACCCATGGACCGGTTTTCCCGGTAATCCGTATTTGCT (site CTCTACACTAG)	0.274
CTCTACCCATGGACCGGTTTTCCCGGTAATCCGTATTTGCT (site CTCTACCCTAG)	1.74
CTCTACCCATGGACCGGTTTTCCCGGTAATCCGTATTTGCT (site CTCTACGCTAG)	0.00357
CTCTACCCATGGACCGGTTTTCCCGGTAATCCGTATTTGCT (site CTCTACTCTAG)	2.87
CTCTAGACATGGACCGGTTTTCCCGGTAATCCGTATTTGCT (site CTCTAAACTAG)	0.681
CTCTAGACATGGACCGGTTTTCCCGGTAATCCGTATTTGCT (site CTCTACACTAG)	0.119
CTCTAGACATGGACCGGTTTTCCCGGTAATCCGTATTTGCT (site CTCTAGACTAG)	0.576
CTCTAGACATGGACCGGTTTTCCCGGTAATCCGTATTTGCT (site CTCTATACTAG)	0
CTCTCCACATGGACCGGTTTTCCCGGTAATCCGTATTTGCT (site CTCTACACTAG)	0.902
CTCTCCACATGGACCGGTTTTCCCGGTAATCCGTATTTGCT (site CTCTCCACTAG)	2.34
CTCTCCACATGGACCGGTTTTCCCGGTAATCCGTATTTGCT (site CTCTGCACTAG)	0
CTCTCCACATGGACCGGTTTTCCCGGTAATCCGTATTTGCT (site CTCTTCACTAG)	0.534
CTCTGCACATGGACCGGTTTTCCCGGTAATCCGTATTTGCT (site CTCTACACTAG)	0.861
CTCTGCACATGGACCGGTTTTCCCGGTAATCCGTATTTGCT (site CTCTCCACTAG)	0.00325
CTCTGCACATGGACCGGTTTTCCCGGTAATCCGTATTTGCT (site CTCTGCACTAG)	2.1

Sequence	recombinant UMI read abundance (log10)
CTCTGCACATGGACCGGTTTTCCCGGTAATCCGTATTTGCT (site CTCTTCACTAG)	0.00616
CTCTTCTCATGGACCGGTTTTCCCGGTAATCCGTATTTGTA (site CTCTTCTCTTA)	2.1
CTGACTCCATGGACCGGTTTTCCCGGTAATCCGTATTTGGG (site CTGACTCCTCC)	0.44
CTGCAAACATGGACCGGTTTTCCCGGTAATCCGTATTTGCA (site CTGAAAACTTG)	0
CTGCAAACATGGACCGGTTTTCCCGGTAATCCGTATTTGCA (site CTGCAAACTTG)	0.915
CTGCAAACATGGACCGGTTTTCCCGGTAATCCGTATTTGCA (site CTGGAAACTTG)	0
CTGCAAACATGGACCGGTTTTCCCGGTAATCCGTATTTGCA (site CTGTAAACTTG)	0
CTGCACCCATGGACCGGTTTTCCCGGTAATCCGTATTTGGC (site CTGCACCCTGC)	0.469
CTGCAGGCATGGACCGGTTTTCCCGGTAATCCGTATTTGAG (site CTGCAGGCTCT)	1.5
CTGCATGCATGGACCGGTTTTCCCGGTAATCCGTATTTGGT (site ATGCATGCTAC)	0.0144
CTGCATGCATGGACCGGTTTTCCCGGTAATCCGTATTTGGT (site CTGCATGCTAC)	1.57
CTGCATGCATGGACCGGTTTTCCCGGTAATCCGTATTTGGT (site GTGCATGCTAC)	0.0408
CTGCATGCATGGACCGGTTTTCCCGGTAATCCGTATTTGGT (site TTGCATGCTAC)	0.0633
CTGCCAACATGGACCGGTTTTCCCGGTAATCCGTATTTGAA (site CTGCCAACTTT)	0.912
CTGCCGGCATGGACCGGTTTTCCCGGTAATCCGTATTTGCA (site CTGCCGGCTTG)	2.01
CTGCCTACATGGACCGGTTTTCCCGGTAATCCGTATTTGAG (site CTACCTACTCT)	1.04
CTGCCTACATGGACCGGTTTTCCCGGTAATCCGTATTTGAG (site CTCCCTACTCT)	0.00401
CTGCCTACATGGACCGGTTTTCCCGGTAATCCGTATTTGAG (site CTGCCTACTCT)	1.03
CTGCCTACATGGACCGGTTTTCCCGGTAATCCGTATTTGAG (site CTTCCTACTCT)	0.12
CTGCGAACATGGACCGGTTTTCCCGGTAATCCGTATTTGCA (site CTGCGAACTTG)	1.38
CTGCGGTCATGGACCGGTTTTCCCGGTAATCCGTATTTGTC (site CTGCGGTCTGA)	2.1
CTGCGTGCATGGACCGGTTTTCCCGGTAATCCGTATTTGGT (site CTGCGTGCTAC)	1.37
